Assay results: patent publication US6455578B1, “Aromatic derivatives and iron complexes thereof for the use as normalizing agents of the iron level” (Laboratoire Medidom S.A., priority 1998, dated 2002)

How the values were obtained:
[1] = In vivo tests on permeation of rat erythrocytes / detection in rat tissues and excretion; details: rats, 20 mg per Kg in DMSO by intraperitoneal route; 15, 30 and 60 minutes after treatment
[2] = Partition test between n-octanol and aqueous solution pH 7.4; assay type: physicochemical; details: for partition between n-octanol and aqueous solution (result in words): n-octanol / aqueous 20 mM tris(hydroxymethyl)aminomethane chlorhydrate pH 7.4, Example 7: concentration 100 mM
Protocol: In particular, partition experiments have been carried out between n-ottanol and an aqueous solution 20 mM of tris(hydroxymethyl)aminomethane chlorohydrate brought to pH=7.4 by adding sodium phosphate, obtaining values of the ripartition coefficient, expressed as the ratio between the concentration of the compound in the organic phase and that in the aqueous phase, tipically higher than 20, for the present formula (I) compounds as well as for the Fe (III) complexes thereof.
The partition coefficient between n-octanol and an aqueous solution 20 mM of tris(hydroxymethyl)aminomethane brought to pH=7.4 by the addition of sodium phosphate has been determined by spectrophotometry at room temperature for 3-hydroxy-2-methyl-4H-1-benzopyran-4-one and for the related Fe(III) complex.
In the aqueous solution the 3-hydroxy-2-methyl-4H-1-benzopyran-4one obtained as described in Example 1 was dissolved in the quantity sufficient to have a concentration equal to 10^−4 M. 5 ml of said solution were centrifuged with 5 ml of n-octanol, and the two resulting phases were separated for a concentration determination on each by spectrophotometry.
The partition coefficient, expressed as the ratio between the concentration of the compound in n-octanol and its concentration in the aqueous solution, resulted 24. In the same aqueous solution above described the Fe(III) complex obtained as in Example 4 was dissolved, in the sufficient quantity to obtain a concentration equal to 2×10^−4 M. 5 ml of said solution are centrifuged with 5 ml of n-octanol, then the two resulting phases were separated for a concentration determination on each by spectrophotometry. A partition coefficient equal to 25 was obtained.
According to the procedure described in Example 6 partition data were determined between n-octanol and an aqueous solution 20 mM of tris(hydroxymethyl)aminomethane chlorhydrate brought to pH 7.4 by addition of sodium phosphate, for 3-hydroxy-2-(5-hydroxypentyl)-4H-1-benzopyran-4-one prepared as in Example 3 as well as for the related Fe(III) complex prepared as in Example 5.
In the aqueous solution 3-hydroxy-2-(5-hydroxypentyl)-4H-1-benzopyran-4-one as prepared in Example 3 was dissolved so to obtain a concentration equal to 100 mM. 5 ml of said solution were centrifuged with 5 ml of n-octanol, then the two resulting phases, the aqueous and the organic one, were separated for a concentration determination on each by spectrophotometry.
The same experiment was repeated by dissolving the Fe(III) complex prepared as in Example 5 in the above described aqueous solution.

[3] = tested on: erythrocytes; assay: In vitro tests on permeation into erythrocytes; assay type: in vitro ADME, rat; details: for found in the aqueous medium containing the phosphate buffer after resuspension of loaded erythrocytes: loaded erythrocytes resuspended in fresh buffer; for found in the aqueous medium containing the phosphate buffer after resuspension of loaded erythrocytes / found in the plasmatic medium after resuspension of loaded erythrocytes / distribution between previously overloaded erythrocytes and the aqueous medium of resuspension: further 30 minutes at 37 C; for found in the plasmatic medium after resuspension of loaded erythrocytes: loaded erythrocytes resuspended in their plasma; for distribution between previously overloaded erythrocytes and the aqueous medium of resuspension: loaded erythrocytes resuspended in fresh plasma or fresh buffer; for time in which a balance between intracellular and extracellular environment is reached: rat erythrocytes
Protocol: Solutions of 3-hydroxy-2-methyl-4H-1-benzopyran-4-one prepared as in Example 1 and the related Fe(III) complex obtained in acetone as in Example 4 were used for suitable sampling in incubation flasks. For the complex acetone is evaporated, and the biologic samples are then added to the residue. Whole blood of rat deprived of leucocytes, or alternatively erythrocytes washed and resuspended in 127 mM of sodium phosphate 50% buffer (pH=7.4) and containing 23 mM of NaCl, were added into the incubation flasks and incubated at 37° C. for 15 and respectively 30 minutes.
At those times erythrocytes were separeted by centrifugation and separately extracted together with the supernatants with 2 volumes of ethyl acetate. The related quantities of the tested substances were measured by spectrophotometry in ethyl acetate and compared with suitable standards. After 30 minutes of incubation the 3-hydroxy-2-methyl-4H-1-benzopyran-4-one as well as the related Fe(III) complex were found in the erythrocytes for 51% and for 49% in the aqueous medium. After 30 minutes of incubation 50% of the sedimented erythrocytes are resuspended in their fresh plasma and the remaining 50% in fresh buffer.
Erhytrocytes of rat were separated from their plasma deprived of leucocytes. Part of the erythrocytes were resuspended in sodium phosphate 50% buffer (pH=7.4), and another part of the erythrocytes were joined to part of their plasma so to obtained a 50% hematocrit. To both suspensions were added alternatively 100 mg/l of 3-hydroxy-2-(5-hydroxypentyl)-4H-benzopyran-4-one prepared as in Example 3 and 50 mg/l of the related Fe(III) complex prepared as in Example 5, and the incubation was made at 37° C. After 30 minutes the erythrocytes were separated by centrifugation and extracted separately together with supernatants with ethyl acetate. The quantities of the tested substances were measured by spectrophotometry in ethyl acetate and compared to suitable standards.
After 30 minutes incubation the 40% of 3-hydroxy-2-(5-hydroxypenthyl)-4H-1-benzopyran-4-one, as well as of the ferric complex thereof, were found in the erythrocytes and the remaining 60% in the medium represented by plasma. When the medium is the phosphate buffer the 60% of the tested compounds were found in erythrocytes and the remaining 40% in the medium.
After sedimentation 50% of the erythrocytes containing the tested compounds was resuspended in their plasma and the remaining 50% in fresh buffer. After a further 30 minutes incubation at 37° C. 60% of 3-hydroxy-2-(5-hydroxypentyl)-4H-1-benzopyran-4-one and of the related complex were found in the plasmatic medium and the remaining 40% in the aqueous medium containing the phosphate buffer. Therefore the chelating agent as well as the related ferric complex do permeate into cellular membranes in both directions, and are uniformly distributed in the intracellular and in the extracellular environment.

[4] = In vivo tests on permeation of rat erythrocytes / detection in rat tissues and excretion; details: for Qualitative detection in Erythrocytes / Qualitative detection in Plasma / Qualitative detection in Brain / Qualitative detection in Liver / Qualitative detection in Urine: rat, single oral dose 20 mg per Kg
Protocol: The tests are performed on male rats Sprague-Dawley weighting from 250 to 300 g.
The chelating agent 3-hydroxy-2-methyl-4H-1-benzopyran-4-one prepared as in Example 1, vehiculated by 4 parts of β-cyclodextrine for each part of chelating agent, is administered to the rats in a single oral dose comprising 20 mg of chelating agent per Kg of body weight.
The chelating agent 3-hydroxy-2-(5-hydroxypentyl)-4H-1-benzopyran-4-one prepared as in Example 3 is administered to the rats in a single oral dose, comprising 2% of methyl cellulose and 20 mg of chelating agent per Kg of body weight.

[5] = Stability constant of the Fe(III) complex by cyclic voltammetry; assay type: physicochemical
Protocol: wherein R5 is CH3, has been measured by voltammetry with a Pt electrode as the working electrode and with a calomel electrode as the reference electrode, obtaining a stability constant equal to 3.0×10^10.
The complexation cynetics has been moreover studied by cyclic voltammetry with a Pt electrode as the working electrode and a calomel electrode as the reference electrode, in the following conditions:ferric perchlorate (7 mg) is dissolved in 20 ml of a NaCl solution 150 mM containing 5% of DMSO, and this solution is put into the voltammetric cell for the plot registration; from this plot the half-wave potential for the ferric salt can be deduced: (E½)s Fe^3+/Fe^2+=0.420 V.
3-hydroxy-2-methyl-4H-1-benzopyran-4-one (10.5 mg) is dissolved in DMSO (3 ml), and with the so obtained solution 4 additions are made to the voltammetric cell, registering the cyclic voltammetric plot after every addition. […]
The stability constant of the complex is calculated according to the following formula: [formula]
wherein (E½)s e (E½)c are the half-wave potential of the salt and, respectively, of the complex above reported, n is the number of electrons, β is the stability constant of the complex and c is its concentration, and p is the number of chelating agent molecules in the complex. The so calculated value of the stability constant is […].

[6] = medium phosphate buffer pH 7.4, 37 C, 30 minutes, 100 mg/l ligand or 50 mg/l complex
[7] = medium plasma, 50% hematocrit, 37 C, 30 minutes, 100 mg/l ligand or 50 mg/l complex
[8] = rat whole blood deprived of leucocytes or washed erythrocytes in phosphate buffer pH 7.4, 37 C, 30 minutes incubation
[9] = male Sprague-Dawley rats, single oral dose 20 mg per Kg with beta-cyclodextrine

Q: With `O=c1c(O)c(CCCCCO)oc2ccccc12` [3-hydroxy-2-(5-hydroxypentyl)-4H-1-benzopyran-4-one] as the molecule, how does the presence in erythrocytes [1] read?
A: The presence in erythrocytes was “has been revealed”.

Q: What about the “partition between n-octanol and aqueous solution (result in words)” value [2] of the same molecule?
A: The value was “completely pass in the alcoholic phase”.

Q: And the melting point?
A: The melting point was 111 to 112 °C.

Q: What about the “found in the aqueous medium containing the phosphate buffer after resuspension of loaded erythrocytes” value [3] of the same molecule?
A: Its value is 40%.

Q: What about the “found in the plasmatic medium after resuspension of loaded erythrocytes” value [3] of the same molecule?
A: Its value is 60%.

Q: What about the found in erythrocytes [3, 6] of the same molecule?
A: The found in erythrocytes was 60%.

Q: What about the “found in the medium” value [3, 6] of the same molecule?
A: Its value is 40%.

Q: And the “found in the erythrocytes” value [3, 7]?
A: Its value is 40%.

Q: And the “found in the medium” value [3, 7]?
A: Its value is 60%.

Q: And the presence in urine ([4]; male Sprague-Dawley rats, single oral dose 20 mg per Kg in 2% methyl cellulose, 12, 24 and 48 hours from administration)?
A: Its presence in urine is “has been revealed”.

Q: What about the presence in plasma ([4]; rats, 20 mg per Kg in DMSO by intraperitoneal route, 15, 30 and 60 minutes after treatment) of the same molecule?
A: Its presence in plasma is “has been revealed”.

Q: What does the source list for “Fe(III) complex of 3-hydroxy-2-methyl-4H-1-benzopyran-4-one”?
A: half-wave potential of the complex (E1/2) Fe3+/Fe2+ ([5]; cyclic voltammetry, after first addition of 0.5 ml chelating agent solution in DMSO): 0.120 V; stability constant of the Fe(III) complex ([5]; voltammetry, Pt working electrode, calomel reference electrode, NaCl 150 mM containing 5% DMSO): 3.0×10^10; partition coefficient (concentration in n-octanol / concentration in aqueous solution) ([2]; n-octanol / aqueous 20 mM tris(hydroxymethyl)aminomethane pH 7.4, room temperature, spectrophotometry, ligand 10^-4 M, complex 2x10^-4 M): 25; distribution between previously overloaded erythrocytes and the aqueous medium of resuspension [3]: equally distributed; time in which a balance between intracellular and extracellular environment is reached ([3]; 37 C): ca. 30 minutes; found in the aqueous medium [3, 8]: 49%; found in the erythrocytes [3, 8]: 51%

Q: Which results are given for `Cc1oc2ccccc2c(=O)c1O` [3-hydroxy-2-methyl-4H-1-benzopyran-4-one]?
A: logD ([2]; n-octanol / aqueous 20 mM tris(hydroxymethyl)aminomethane pH 7.4, room temperature, spectrophotometry, ligand 10^-4 M, complex 2x10^-4 M, read-out: partition coefficient (concentration in n-octanol / concentration in aqueous solution) (converted)): 1.38; melting point: 179 to 180 °C; distribution between previously overloaded erythrocytes and the aqueous medium of resuspension [3]: equally distributed; time in which a balance between intracellular and extracellular environment is reached ([3]; 37 C): ca. 30 minutes; found in the aqueous medium [3, 8]: 49%; found in the erythrocytes [3, 8]: 51%; presence in urine (onset) [4, 9]: starting from twenthyfourth hour; time of maximum presence (erythrocytes, brain and liver) [4, 9]: maximum in the fourth hour; presence in erythrocytes, brain and liver (first detection) ([4]; male Sprague-Dawley rats, single oral dose 20 mg per Kg with beta-cyclodextrine, spectrophotometry and fluorimetry): found already in the first hour; Qualitative detection in Erythrocytes ([4]; 1/2 hr after administration): p(+); Qualitative detection in Plasma ([4]; 1/2 hr after administration): p(+); Qualitative detection in Brain ([4]; 1 hr after administration): p(+); Qualitative detection in Erythrocytes ([4]; 1 hr after administration): p(++); Qualitative detection in Liver ([4]; 1 hr after administration): p(+); Qualitative detection in Plasma ([4]; 1 hr after administration): p(++); Qualitative detection in Brain ([4]; 4 hr after administration): p(++); Qualitative detection in Erythrocytes ([4]; 4 hr after administration): p(+++); Qualitative detection in Liver ([4]; 4 hr after administration): p(+++); Qualitative detection in Plasma ([4]; 4 hr after administration): p(++); Qualitative detection in Urine ([4]; 4 hr after administration): p(+); Qualitative detection in Brain ([4]; 24 hr after administration): p(++); Qualitative detection in Liver ([4]; 24 hr after administration): p(++); Qualitative detection in Urine ([4]; 24 hr after administration): p(++); Qualitative detection in Urine ([4]; 48 hr after administration): p(+++)

Q: What does the source list for “Fe(III) complex of 3-hydroxy-2-(5-hydroxypentyl)-4H-1-benzopyran-4-one”?
A: partition between n-octanol and aqueous solution (result in words) [2]: completely pass in the alcoholic phase; found in the aqueous medium containing the phosphate buffer after resuspension of loaded erythrocytes [3]: 40%; found in the plasmatic medium after resuspension of loaded erythrocytes [3]: 60%; found in erythrocytes [3, 6]: 60%; found in the medium [3, 6]: 40%; found in the erythrocytes [3, 7]: 40%; found in the medium [3, 7]: 60%
